In series [1] the test system is Leishmania donovani. The series can be described thus: Antileishmanial activity against Leishmania donovani NHOM/IN/80/DD8 promastigotes after 72 hrs by MTT assay. Format: functional. As to conditions: NHOM/IN/80/DD8, 72 h. (In general: Tetrazolium assays rely on reduction of a dye to a coloured formazan, in cell work by metabolically active cells.)
For the next series, the system named is Pseudomonas aeruginosa. Kind of series: Antibacterial activity against Pseudomonas aeruginosa NCIM 2036 by standard agar method. Type of series: functional.
For the next series, the system named is Escherichia coli. The series can be described thus: Antibacterial activity against Escherichia coli NCIM 2256 by standard agar method. Format: functional.
The subject of the next series is Bacillus subtilis. The series can be described thus: Antibacterial activity against Bacillus subtilis NCIM 2063 by standard agar method. Format: functional.
The next series concerns Staphylococcus aureus. The series can be described thus: Antibacterial activity against Staphylococcus aureus NCIM 2901 by standard agar method. Format: functional.
Another series has as its system HeLa. The series can be described thus: Cytotoxic activity against human HeLa cells up to 300 ug/mL after 72 hrs by MTT assay. Format: cell-based.
A further series concerns Leishmania chagasi. The series can be described thus: Antileishmanial activity against Leishmania donovani chagasi MHOM/BR/74/PP75 promastigotes after 72 hrs by phase contrast microscopic method. Format: functional. As to conditions: MHOM/BR/74/PP75, 72 h; call rule not given here.
In series [2] the test system is Leishmania donovani. Kind of series: Antileishmanial activity against Leishmania donovani. Type of series: functional.

Structures are written as SMILES. Values after ≈ are worked out from the molar mass of the structure shown.

The record followed here is ChEMBL document CHEMBL4000191, “Antileishmanial evaluation of clubbed bis(indolyl)-pyridine derivatives: One-pot synthesis, in vitro biological evaluations and in silico ADME prediction” (Bioorg Med Chem Lett, 2017).

The term IC50 denotes the concentration that inhibits the measured activity by half. For orientation: MIC means the lowest concentration found to suppress growth.

`Clc1ccc(-c2cc(-c3c[nH]c4ccccc34)nc(-c3c[nH]c4ccccc34)c2)cc1` showed an IC50 with Leishmania donovani [1] of 166 µM. Further, the MIC in the series on Pseudomonas aeruginosa was determined as 115 µg/mL (≈ 275 µM); with Escherichia coli, 90.5 µg/mL (≈ 216 µM); with Bacillus subtilis it was 77.2 µg/mL (≈ 184 µM); in the series with Staphylococcus aureus, 183 µg/mL (≈ 435 µM).
Consider `O=C(O)c1ccccc1-c1cc(-c2c[nH]c3ccccc23)nc(-c2c[nH]c3ccccc23)c1`, for which 118 µM corresponded to half-maximal inhibition in the series with Leishmania donovani [1] (IC50). The MIC was determined as 122 µg/mL (≈ 284 µM) in the series with Pseudomonas aeruginosa, 71.5 µg/mL (≈ 166 µM) with Escherichia coli, 70.4 µg/mL (≈ 164 µM) in the series on Bacillus subtilis and 129 µg/mL (≈ 300 µM) in the series on Staphylococcus aureus.
`COc1cc(-c2cc(-c3c[nH]c4ccccc34)nc(-c3c[nH]c4ccccc34)c2)cc(OC)c1OC` registered an IC50 in the series on Leishmania donovani [1] of 136 µM. Moreover, the minimal inhibitory concentration (MIC) came out at 197 µg/mL (≈ 414 µM) against Pseudomonas aeruginosa, 192 µg/mL (≈ 403 µM) with Escherichia coli, 79.9 µg/mL (≈ 168 µM) with Bacillus subtilis and 179 µg/mL (≈ 377 µM) in the series with Staphylococcus aureus.
The corresponding values for `COc1ccc(-c2cc(-c3c[nH]c4ccccc34)nc(-c3c[nH]c4ccccc34)c2)cc1OC` are 192 µM, 180 µg/mL (≈ 404 µM), 191 µg/mL (≈ 428 µM), 55.4 µg/mL (≈ 124 µM) and 194 µg/mL (≈ 436 µM).
For `c1ccc(-c2cc(-c3c[nH]c4ccccc34)nc(-c3c[nH]c4ccccc34)c2)cc1`, in that order: 142 µM, 149 µg/mL (≈ 387 µM), 55.4 µg/mL (≈ 144 µM), 89.6 µg/mL (≈ 232 µM) and 158 µg/mL (≈ 410 µM).
With `COc1ccc(-c2cc(-c3c[nH]c4ccccc34)nc(-c3c[nH]c4ccccc34)c2)cc1`, the IC50 in the series with Leishmania donovani [1] was determined as 99.5 µM. The MIC is 120 µg/mL (≈ 288 µM) against Pseudomonas aeruginosa, 46.6 µg/mL (≈ 112 µM) in the series with Escherichia coli, 81.5 µg/mL (≈ 196 µM) against Bacillus subtilis and 165 µg/mL (≈ 398 µM) in the series with Staphylococcus aureus. Moreover, the Activity result in the series with HeLa is on record as “Non-Toxic”.
The compound `Oc1ccc(-c2cc(-c3c[nH]c4ccccc34)nc(-c3c[nH]c4ccccc34)c2)cc1O` gave an IC50 with Leishmania donovani [1] of 287 µM. Also, the minimum inhibitory concentration (MIC) amounted to 224 µg/mL (≈ 535 µM) in the series with Pseudomonas aeruginosa, 158 µg/mL (≈ 379 µM) against Escherichia coli, 121 µg/mL (≈ 291 µM) against Bacillus subtilis and 191 µg/mL (≈ 458 µM) in the series with Staphylococcus aureus.
For `Clc1cccc(Cl)c1-c1cc(-c2c[nH]c3ccccc23)nc(-c2c[nH]c3ccccc23)c1`, in that order: 102 µM, 175 µg/mL (≈ 386 µM), 87.5 µg/mL (≈ 193 µM), 96.5 µg/mL (≈ 212 µM) and 178 µg/mL (≈ 391 µM).
`COC(=O)[C@@H]1C[C@@]23CCCN4CC[C@@]5(c6ccccc6N(C(=O)OC)[C@]15CC2)[C@H]43` displayed a half-maximal inhibitory concentration (IC50) in the series on Leishmania chagasi of 60.9 µM.
Take `COc1ccc(OC)c(-c2cc(-c3c[nH]c4ccccc34)nc(-c3c[nH]c4ccccc34)c2)c1`: the IC50 in the series on Leishmania donovani [1] stood at 260 µM. Besides, the MIC in the series on Pseudomonas aeruginosa is 182 µg/mL (≈ 408 µM); in the series on Escherichia coli it was 133 µg/mL (≈ 299 µM); in the series on Bacillus subtilis, 79.5 µg/mL (≈ 178 µM); with Staphylococcus aureus, 158 µg/mL (≈ 356 µM).
`CN(C)c1ccc(-c2cc(-c3c[nH]c4ccccc34)nc(-c3c[nH]c4ccccc34)c2)cc1` registered a concentration for half-maximal inhibition (IC50) in the series with Leishmania donovani [1] of 112 µM. The MIC with Pseudomonas aeruginosa was 149 µg/mL (≈ 349 µM); in the series on Escherichia coli it was 95.9 µg/mL (≈ 224 µM); against Bacillus subtilis it was 103 µg/mL (≈ 240 µM); in the series on Staphylococcus aureus it was 229 µg/mL (≈ 534 µM).
On to `COc1ccc(-c2cc(-c3c[nH]c4ccccc34)nc(-c3c[nH]c4ccccc34)c2)c(OC)c1`, for which half-maximal inhibition with Leishmania donovani [1] (IC50) was put at 600 µM. The MIC is 188 µg/mL (≈ 423 µM) in the series on Pseudomonas aeruginosa, 52.2 µg/mL (≈ 117 µM) against Escherichia coli, 88.7 µg/mL (≈ 199 µM) against Bacillus subtilis and 123 µg/mL (≈ 276 µM) with Staphylococcus aureus.
With `Clc1ccccc1-c1cc(-c2c[nH]c3ccccc23)nc(-c2c[nH]c3ccccc23)c1`, the half-maximal inhibitory concentration (IC50) with Leishmania donovani [1] was found to be 123 µM. Moreover, the MIC in the series on Pseudomonas aeruginosa was 150 µg/mL (≈ 358 µM); in the series on Escherichia coli it was 41.4 µg/mL (≈ 98.5 µM); in the series with Bacillus subtilis, 64.8 µg/mL (≈ 154 µM); in the series on Staphylococcus aureus it was 166 µg/mL (≈ 394 µM). The Activity result in the series with HeLa is given as “Non-Toxic”.
In turn, `COc1cc(-c2cc(-c3c[nH]c4ccccc34)nc(-c3c[nH]c4ccccc34)c2)ccc1O` gave a half-inhibitory concentration (IC50) in the series on Leishmania donovani [1] of 169 µM. Also, the MIC against Pseudomonas aeruginosa is 165 µg/mL (≈ 383 µM); against Escherichia coli it was 129 µg/mL (≈ 300 µM); against Bacillus subtilis it was 95.7 µg/mL (≈ 222 µM); in the series on Staphylococcus aureus it was 221 µg/mL (≈ 511 µM).
Turning to `CC1(C)S[C@@H]2[C@H](NC(=O)[C@H](N)c3ccccc3)C(=O)N2[C@H]1C(=O)O` [AMPICILLIN], the MIC with Pseudomonas aeruginosa came to 100 µg/mL (≈ 286 µM); against Escherichia coli, 100 µg/mL (≈ 286 µM); in the series on Bacillus subtilis it was 250 µg/mL (≈ 715 µM); with Staphylococcus aureus it was 250 µg/mL (≈ 715 µM).
As to `O=C(O)c1cn(C2CC2)c2cc(N3CCNCC3)c(F)cc2c1=O` [CIPROFLOXACIN], the minimal inhibitory concentration (MIC) against Pseudomonas aeruginosa turned out to be 50 µg/mL (≈ 151 µM); in the series with Escherichia coli, 25 µg/mL (≈ 75.4 µM).
As for `C[n+]1c2ccccc2cc2[n-]c3ccccc3c21` [CRYPTOLEPINE], the IC50 in the series on Leishmania donovani [2] worked out at 1.6 µM.
